Results reported in the NIST ThermoML archive (doi:10.1021/acs.jced.5b00112).
Numbers after ± are expanded uncertainties.

Experiment: wn = mass fraction of the nth substance listed
Settings: 348 K, 101 kPa, Liquid, Pycnometric method

Row | mass density (w1 = 0.5348) [kg/m3] | mass density (w1 = 0.7426) [kg/m3] | Compound
1 | 1674.1 ± 1.8 | – | [Br-].[Br-].[Mg+2] [magnesium bromide (MgBr2)] + O
2 | – | 2062.6 ± 3.5 | [Br-].[Br-].[Ca+2] [calcium bromide] + O
